Structures can show the parent of a compound that is named as a salt.

This assay deals with HCT-116. As to the kind of experiment: Cytotoxicity against human HCT-116 cells assessed as cell growth inhibition measured after 48 hrs by MTT assay. The conditions noted are these: HCT-116, 48 h. In kind it is functional, cell-based. For orientation: Formazan colour is commonly taken as a measure of viable cells.
Consider `C=C1[C@H]2O[C@@H](OC(=O)/C=C(/C)COC(C)=O)[C@H]3[C@@H]1CC(=O)[C@@]3(CO)O2`, for which the IC50 (commonly the concentration at which inhibition is half-maximal) was 4.9 µM. For the molecule `C=C1[C@H]2O[C@@H](OC(=O)/C=C(/C)COC(C)=O)[C@H]3[C@@H]1CC(=O)[C@@]3(CCl)O2`, the IC50 was determined as 5.2 µM. With `COc1cccc2c1C(=O)c1c(O)c3c(c(O)c1C2=O)C[C@@](O)(C(=O)CO)C[C@@H]3O[C@H]1C[C@H](N)[C@H](O)[C@H](C)O1` [DOXORUBICIN HYDROCHLORIDE] the figure was 0.16 µM.
